Like-named read-outs stand apart in the source and are kept apart here.
Tests used:
bc1 complex = biological target: T1, bc1 complex (Sus scrofa, UniProt P24964); assay: bc1 complex activity, DBH2-cytochrome c system (Assay 3); type: biochemical, porcine
T1 construct: T h e S C R f r o m p o r c i n e h e a r t; from tissue; host or cells: porcine heart
Procedure: Figure 3 Inhibitory kinetics of bc1 complex. (A) Chemical structures of AZ (azoxystrobin) and its analogues, compound 1 and compound 18. These compounds have a common pharmacophore structure: methoxyacrylate (MOA). […] Each reaction mixture contains phosphate buffered saline (PBS; 100 mM, pH 6.5), ethylenediaminetetraacetic acid (EDTA; 2 mM), lauryl maltoside (750 μM), oxidised cytochrome c (100 μM), SCR (0.05 nM), DBH2 (20–120 μM) and a specified amount of AZ (1, 0 nM; 2, 500 nM; 3, 1000 nM; 4, 2000 nM; 5, 3000 nM; and 6, 5000 nM). (C) Compound 1 is non-competitive with respect to cytochrome c. The reaction mixture contains 100 mM, pH 7.4), EDTA (0.3 mM), succinate (20 mM), SCR (0.1 nM), cytochrome c (1.13–15.6 μM), and a series of concentrations of compound 1 (1, 0 nM; 2, 10 nM; 3, 20 nM; 4, 40 nM; and 5, 60 nM). (D) Compound 1 is competitive with respect to DBH2. Each reaction mixture contains 100 mM, pH 6.5), EDTA (2 mM), lauryl maltoside (750 μM), oxidised cytochrome c (100 μM), SCR (0.05 nM), DBH2 (20–120 μM) and a specified amount of compound 1 (1, 0 nM; 2, 50 nM; 3, 100 nM; 4, 200 nM; 5, 300 nM; and 6, 500 nM).
(§1) Figure 4 Slow-binding inhibition mechanism. (A,B) Effect of various concentrations of cytochrome c and compound 18 on the inhibition of SCR activity. Each reaction mixture contains 100 mM, pH 7.4), EDTA (0.3 mM), succinate (20 mM), SCR (0.1 nM), and indicated amounts of cytochrome c and compound 18. The assays were performed in the presence of (A) 18 (35 nM) and a specified amount of cytochrome c (1, 4 μM; 2, 8 μM; 3, 20 μM; and 4, 48 μM) or (B) cytochrome c (60 μM) and various concentrations of compound 18 (1, 0 nM; 2, 15 nM; 3, 20 nM; 4, 30 nM; 5, 40 nM; and 6, 50 nM). Experimental data are shown as coloured dots and theoretical values are represented as black solid lines. Insets: plots of Kobs against concentration of (A) cytochrome c and (B) compound 18. […] Each reaction mixture contains 100 mM, pH 6.5), EDTA (2 mM), lauryl maltoside (750 μM), oxidised cytochrome c (100 μM), SCR (0.05 nM), and indicated amounts of DBH2 and compound 18. Two representative sets of inhibitory assays were performed in the presence of (C) DBH2 (20 μM) and a specified amount of compound 18 (1, 20 nM; 2, 40 nM; 3, 60 nM; 4, 80 nM), or (D) DBH2 (120 μM) and a specified amount of compound 18 (1, 40 nM; 2, 80 nM; 3, 120 nM; 4, 180 nM). Insets: plots of Kobs against concentration of compound 18. (E) Plot of the apparent rate constant A against concentration of DBH2. Inset: Plot of 1/A against concentration of DBH2. (F) Plot of the apparent rate constant B against concentration of DBH2.
(§2) The porcine succinate-cytochrome c reductase (SCR, the mixture of complex II and bc1) was prepared essentially according to the previously reported method. The enzymatic activities of SCR, complex II, and bc1 complex were analyzed in respective reaction mixtures as reported previously. Kinetic analyses for the inhibition mechanism were performed as previously described. […]
(§3) inhibitory kinetics study of bc1 inhibitors 8. […]
(§4) synthesized compounds against bc1 complex were examined by SCR. As previously described 9, the combined activity of SCR can be determined by using succinate and cytochrome c as substrates (Assay 1). We also measured the activity of complex II by using succinate and 2,6-dichloroindophenol (DCIP) as substrates (Assay 2), or the activity of bc1 complex by using decylubiquinol (DBH2) and cytochrome c as substrates (Assay 3). […]
redA 10, was used to represent the enzyme concentration. The three redox reactions used in this study were summarized as follows. […]

[1] = biological target: T2, porcine succinate-cytochrome c reductase (SCR, the mixture of complex II and bc1) (Sus scrofa, UniProt P24964); assay: SCR activity, succinate-cytochrome c system (Assay 1); type: biochemical; conditions: for ligand efficiency (LE): from Ki against bc1 complex; for binding behaviour to bc1 complex (slow or fast binding): progress curves of SCR-catalysed reaction
T2 construct: T h e S C R f r o m p o r c i n e h e a r t; from tissue; host or cells: porcine heart
Procedure: as §1, §2, §3, §4
redA 10, was used to represent the enzyme concentration. The three redox reactions used in this study were summarized as follows.
Assay 1: succinate + cytochrome c3+ S C R fumarate + cytochrome c2+
Assay 2: succinate + DCIP complex II fumarate + DCIPH 2
Assay 3: DBH 2 + cytochrome c3+ bc1 complex DB + cytochrome c2+
All assays were performed at 23 °C. The enzymatic activity of SCR (Assay 1) was carried out in 1.8 mL of reaction mixture containing 100 mM PBS (pH 7.4), 0.3 mM EDTA, and indicated concentrations of succinate and oxidized cytochrome c (Sigma-Aldrich). The activity of succinate-ubiquinone reductase (complex II, Assay 2) was determined in essentially the same reaction mixture, except for the replacement of cytochrome c with DCIP (Alfa Aesar). […] DBH 2 was prepared through reduction of decylubiquinone by dithionite (Sigma-Aldrich) as previously described 11,12. The nonionic detergent LM was used to decrease the interfering non-enzymatic activity though it slightly […]

[2] = test system: Sphaerotheca fuliginea (Schlecht.) Poll.; assay: In vivo fungus growth inhibitory rate at 200 mg/L, powdery mildew
From the text: Based on the above in vitro study, compounds with nanomolar and subnanomolar Ki values were selected from the total 21 newly synthezised compounds for further studies. Pesticide likeness, defined as a complex balance of various physicochemical properties and structure features, can evaluate whether a molecule is similar to the known pesticides. After the filtration of pesticide likeness, seven compounds were kept to adhere to our previously defined rules for pesticide-likeness including molecular weight (MW) ≤ 435 Da, ClogP ≤ 6, number of H-bond acceptors (HBA) ≤ 6, number of H-bond donors (HBD) ≤ 2, number of rotatable bonds (ROB) ≤ 9, and number of aromatic bonds (ARB) ≤ 17 (Table 1)[24]. […] Therefore, compound 18 was recognized as lead compound for subsequent studies.
[a] Compounds are named as “series number-site number plus substitution group number” a: -F, b: -Cl, c:
-Br, d: -NO2, e: -CH3, f: -CF3, g: -OCH3, h: -OH, i: -NH2, j: -COOH.
[b] Substitution number and group.
[c] CH is “series 1” and N is “series 2”. […]
Table S2 Fungus growth inhibitory rate of target compounds (200 mg/L).
Comp. No. R X Sphaerotheca fuliginea Pseudoperonospora cubensis

T2 sequence (P24964 whole entry, one chain of several): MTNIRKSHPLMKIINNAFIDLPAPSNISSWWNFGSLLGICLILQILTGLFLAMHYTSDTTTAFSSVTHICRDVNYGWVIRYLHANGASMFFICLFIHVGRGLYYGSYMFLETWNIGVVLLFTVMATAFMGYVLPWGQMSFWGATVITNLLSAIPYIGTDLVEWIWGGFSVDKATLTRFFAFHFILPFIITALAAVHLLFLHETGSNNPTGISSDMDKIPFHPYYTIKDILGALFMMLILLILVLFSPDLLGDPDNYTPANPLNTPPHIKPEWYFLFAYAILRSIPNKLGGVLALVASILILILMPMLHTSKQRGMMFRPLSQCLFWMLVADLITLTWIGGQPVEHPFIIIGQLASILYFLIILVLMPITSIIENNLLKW
T1 sequence (P24964 whole entry, one chain of several): as above

SMILES | Ki (bc1 complex) | inhibition type with respect to DBH2 (bc1 complex; Assay 3, varied DBH2) | ligand efficiency (LE) [1] | binding behaviour to bc1 complex (slow or fast binding) [1] | Fungus growth inhibitory rate, Sphaerotheca fuliginea [2] | Fungus growth inhibitory rate, Sphaerotheca fuliginea ([2]; listed as Comp. 18) | microscopic inhibition rate constant k+0 (bc1 complex; Assay 3, varied DBH2) | microscopic inhibition rate constant k−0 (bc1 complex; Assay 3, varied DBH2) | Ki [1] | inhibition type with respect to cytochrome c ([1]; Assay 1, varied cytochrome c) | ∆∆Gexp ([1]; Table S1, experimental binding free energy change vs compound 1) | ΔΔGexp ([1]; experimental binding free energy change relative to compound 1) | kon ([1]; read-out: association rate constant k+0) | koff ([1]; read-out: dissociation rate constant k−0)
CO/C=C(/C(=O)OC)c1ccccc1Oc1cc(Oc2ccccc2C#N)ncn1 [AZ, Azoxystrobin, reference compound] | 395 ± 19.6 nM | competitive inhibitor | 0.3 kcal mol^−1 per non-H atom | fast-binding | – | – | – | – | – | – | – | – | – | –
COC=C(C(=O)OC)c1ccccc1CSc1nc2cc(OC)ccc2s1 [Compound 18] | 13.4 ± 0.6 nM | competitive inhibitor | 0.45 kcal mol^−1 per non-H atom | slow-binding | completely inhibited | 100% | 380000 ± 10000 M⁻¹ s⁻¹ | 0.00509 ± 0.00009 s⁻¹ | 4.1 ± 0.5 nM | non-competitive | -1.20 kcal/mol | -1.20 kcal/mol | 660000 ± 10000 M⁻¹ s⁻¹ | 0.00271 ± 0.00031 s⁻¹

Reference: PMC4549706, “Rational Design of Highly Potent and Slow-Binding Cytochrome bc1 Inhibitor as Fungicide by Computational Substitution Optimization” (Scientific Reports, 2015)
